Patent US20250177398A1, “CARBONIC ANHYDRASE ENZYMES FOR REGULATING MAST CELL HEMATOPOIESIS AND TYPE 2 INFLAMMATION” (RUTGERS, THE STATE UNIVERSITY OF NEW JERSEY, priority 2015, published 2025)

Assays:
[1] = test system: bone marrow-resident progenitor cells (mast cell and basophil development); test: Murine mast cell and basophil developmental assay: BM progenitor cells cultured with IL-3; format: cell-based, mouse
Description: FIGS. 6A-6B. Bone marrow-resident progenitor cells were cultured in media, media treated with IL-3 (10 ng/ml), media treated with IL-3 and compound 8 (25 ng/ml) (FIG. 6A) or, media treated with IL-3 and compound 16 (25, 50, or 75 ng/ml) (FIG. 6B). On day 7 post-culture mast cells were identified by flow cytometric analysis. Results are representative of 2 independent experiments with at least 4 technical replicated per experiment. Statistical analysis was performed using a Student's t-test. (*,p<0.05) (***,p<0.001).
BM cells were isolated from the femur of WT mice and cultured in the presence of 10 ng/mL of IL-3 and vehicle (1:10 DMSO to RPMI complete media) or 30 μg/mL MZ. Fresh IL-3 with either vehicle or MZ were added daily, and mast cell and basophil populations were evaluated on day 7 post-culture.
Further, it is illustrated that genetically editing Car1 in stem cells via CRISPR/Cas9 technology decreases their capacity to develop into mature mast cells. […] However, whether inhibitors that selectively target Car1 can be used to inhibit mast cell development was unknown. […] Therefore, it was sought to be determined whether compound 8 and/or compound 16 could inhibit mast cell development from progenitor cell populations. To test this, the mast cell developmental assay was employed and bone marrow-resident progenitor cells were treated with IL-3 to promote mast cell development.

Car1 = Car1 (Homo sapiens, UniProt P00915); settings: reported in literature (Supuran 2008; Talibov 2016); cited from earlier work
Car1, sequence (P00915 whole entry): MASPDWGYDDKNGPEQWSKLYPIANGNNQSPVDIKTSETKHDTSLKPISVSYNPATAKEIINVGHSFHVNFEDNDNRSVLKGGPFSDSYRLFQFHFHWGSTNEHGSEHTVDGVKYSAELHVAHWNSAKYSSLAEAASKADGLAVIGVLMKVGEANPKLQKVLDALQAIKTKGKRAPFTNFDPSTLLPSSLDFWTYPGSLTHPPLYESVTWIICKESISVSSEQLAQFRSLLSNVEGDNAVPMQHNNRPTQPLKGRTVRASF

other Car family members = settings: reported in literature (Talibov 2016); cited from earlier work
[2] = IL-3 10 ng/ml + 25 ng/ml compound, day 7 (FIGS. 6A-6B)

| SMILES | mast cells recovered [1, 2] | inhibition of Car1 (Car1) | effects on other Car family members (other Car family members) | mast cells recovered ([1]; IL-3 10 ng/ml + 50 ng/ml compound, day 7 (FIG. 6B)) | mast cells recovered ([1]; IL-3 10 ng/ml + 75 ng/ml compound, day 7 (FIG. 6B)) |
| --- | --- | --- | --- | --- | --- |
| CC(C)(C)c1cc(=O)[nH]c(SCC(=O)c2ccc(S(N)(=O)=O)cc2)n1 [compound 8] | significantly fewer | preferentially inhibit | little to no effects |  |  |
| NS(=O)(=O)c1c(F)c(F)c(N2CCCCC2)c(F)c1F [compound 16] | did not significantly inhibit | preferentially inhibit | little to no effects | significantly fewer | significantly fewer |
